In patent publication US20060122264A1, “Stem cell invasion inhibitor” (Yasumi Uchida, etal, priority 2003, published 2006):
“Also recorded” adds a separate entry of the source. Marks after values point to notes of the source that are not given here.

Tests used:
[1] = tested on: stenosis at the talc-administered site; experiment: Inflammatory stenosis caused by talc at the coronary artery adventitia: degree of stenosis; format: in vivo, beagle dogs
Protocol: (§1) Anesthetized beagle dogs were employed for the test. While each of the animals was ventilated with air, thoracotomy was performed at the left fifth intercostal space, to thereby expose the heart. Subsequently, talc powder was administered to the vicinity of the adventitia at an intermediate portion of the anterior descending branch of the left coronary artery, which caused inflammation. Subsequently, the thoracotomy site was closed, and phenolsulfonphthalein was injected under conditions similar to those of the test described above in (A) by use of a perforated balloon equipped with an injection syringe containing the drug. After recovery from anesthesia, the animal was bred for one month, and then subjected to coronary angiography. Thereafter, the heart was extirpated from the animal, and then subjected to formalin fixation. A microscopic sample of the talc-administered portion was prepared, and the sample was subjected to β-actin staining, followed by determination of the density of β-actin-positive cells (i.e., stem cells).

[2] = tested on: β-actin-positive vascular stem cells in coronary artery; experiment: Insertion of drug-eluting stent into coronary artery: stem cell density; format: in vivo, beagle dogs; conditions: two-layer-coated drug-eluting stent (inner PLGA 7510, outer PLA 0010), one month
Description: (§2) Nembutal-anesthetized beagle dogs were employed for the test. While each of the animals was ventilated with air, an 8-French guide catheter was inserted through the right common carotid artery, followed by left coronary angiography. Subsequently, a drug-eluting stent (inner layer: PLGA 7510 containing 50% phenolsulfonphthalein, outer layer: PLA 0010 containing 50% phenolsulfonphthalein) was inserted into the left circumflex branch, and then expanded at 9 atm, followed by placement of the stent. After recovery from anesthesia, the animal was bred for one month, and then was again subjected to coronary angiography. The degree of stenosis was measured at the most stenotic site of the stent-inserted portion, and the thus-measured stenosis degree was compared with that in the case of a non-eluting stent group (i.e., a group in which a stent that is not coated with a drug was inserted). Subsequently, the heart was extirpated from the animal, and then subjected to formalin fixation. Thereafter, a microscopic sample of the stent-inserted portion was prepared, followed by staining of vascular smooth muscle β-actin. Stem cells per unit area were counted at the highest-cell-density site of the intima, media, or adventitia of the above-stained sample. Comparison (in terms of stem cell density) was performed between the drug-eluting stent group and the non-eluting stent group (i.e., the group in which a stent that is not coated with a drug was inserted).

[3] = tested on: Human umbilical vein endothelial cells (HUBEC); experiment: Proliferation of human vascular endothelial cells; format: cell-based; conditions: for number of cells after culturing for three days: Endothelial cells
Protocol: (§3) Human umbilical vein endothelial cells (HUBEC) (1×10^5/cm^2) were inoculated into a medium containing MCDB-104, 10% FBS, ECGF (100 ng/mL), EGF (10 ng/mL), and heparin (100 ng/mL), and phenolsulfonphthalein or bromosulfophthalein was added to the medium, followed by culturing for three days. Thereafter, the resultant cells were counted, and the number of the cells was compared with that in the case where no drug was added to the medium. In a manner similar to that described above, human coronary artery smooth muscle cells (1×10^5/cm^2) were cultured in a medium containing MCDB-104, 10% FBS, and EGF (10 ng/mL) for three days, and the resultant cells were counted.

[4] = tested on: thrombus in the right common carotid artery; experiment: Arterial thrombosis, carotid intima damaged by Dotter balloon catheter; format: in vivo, dogs; conditions: 10 mg/kg intravenously; for Average thrombus weight: wet weight thirty minutes after intima damage
Protocol: Anesthetized dogs were employed for the test. Phenolsulfonphthalein or bromosulfophthalein (10 mg/kg, which is 100 times the amount clinically used for renal function testing) was intravenously administered to each of the animals, and the intima of the right common carotid artery was damaged by means of a Dotter balloon catheter. Thirty minutes later, the common carotid artery was extirpated, and the wet weight of thrombus present in the carotid artery was measured. The thus-measured wet weight was compared with that in the case of the control group.

coronary artery stenosis [5] = experiment: Coronary artery stenosis after balloon angioplasty, local administration (coronary angiography, azan staining); format: in vivo, beagle dogs; conditions: for stenosis as determined through coronary angiography: compared with non-administration group; for Stenosis degree (%): coronary angiography, 5% drug 0.5 mL injected locally after balloon dilation
Description: (§4) Nembutal-anesthetized beagle dogs were employed for the test. Each of the animals was endotracheally intubated, and ventilated with air. Subsequently, an 8-French sheath was inserted into the right common carotid artery. An 8-French guide catheter was inserted through the sheath, followed by coronary angiography. Subsequently, a clinically employed balloon catheter for coronary angioplasty (outer diameter: 3 mm, length: 20 mm) was inserted, and then the balloon was expanded at 9 atm, to thereby dilate a distal to intermediate portion of the anterior descending branch of the coronary artery. Through this procedure, the blood vessel wall was damaged. Subsequently, the aforementioned perforated balloon catheter equipped with an injection syringe containing 5% phenolsulfonphthalein (0.5 mL) or 5% bromosulfophthalein (0.5 mL) was guided by a guide wire and inserted into the above-dilated portion, and the phthalein compound (drug) was injected into the blood vessel wall at 3 atm. After completion of injection of the drug, the catheter was removed, and then the cervical portion through which the catheter had been inserted was sutured, followed by administration of an antibiotic. After recovery from anesthesia, the animal was cared for one week to one month, and was again subjected to coronary angiography. One week to one month later, the animal was anesthetized to stop cardiac beat and, the heart was removed from the animal, and then subjected to formalin fixation, followed by preparation of a microscopic sample of the above-dilated portion. Subsequently, the thus-prepared sample was subjected to azan staining and various immunostainings.

[6] = tested on: dendritic cells in the coronary artery wall; experiment: Prevention of cell invasion associated with coronary angioplasty, local administration: dendritic cell count (CD40 immunostaining); format: in vivo, beagle dogs; conditions: for Number of dendritic cells (250 × 250 μm^2): 5% drug 0.5 mL injected locally after balloon dilation; for invasion of dendritic cells: CD40 antibody immunostaining
Description: as §4
(§5) In connection with this finding, in the above-immunostained sample, stem cells per unit area (250×250 um^2) were counted at the highest-cell-density site of the intima, media, or adventitia. Comparison (in terms of the number of stem cells) was performed between drug administration groups and a non-administration group (control group) in which merely saline (0.5 mL) was injected into a portion of the coronary artery dilated with a balloon, and P<0.05 (by Student t test) was regarded as a significant difference.
Dendritic cells, which are inflammatory cells, were subjected to immunostaining with a CD40 antibody.

[7] = tested on: β-actin-positive stem cells in the coronary artery wall; experiment: Prevention of stem cell invasion associated with coronary angioplasty, local administration by pored balloon catheter: stem cell count; format: in vivo, beagle dogs; conditions: for stem cell density compared with the non-administration group: at all the membranes
Description: as §4, §5

coronary artery stenosis [8] = experiment: Insertion of drug-eluting stent into coronary artery: degree of stenosis; format: in vivo, beagle dogs; conditions: one month, most stenotic site of stent-inserted portion
Description: as §2, with “Comparison (in terms of stem cell density) was performed between the drug-eluting stent group and the non-eluting stent group (i.e., the group in which a stent that is not coated with a drug was inserted).” left out

[9] = tested on: β-actin-positive stem cells at the talc-administered site; experiment: Inflammatory stenosis caused by talc at the coronary artery adventitia: stem cell density; format: in vivo, beagle dogs; conditions: for Number of stem cells (250 × 250 μm^2): one month
Protocol: as §1

[10] = tested on: human coronary artery smooth muscle cells; experiment: Proliferation of human coronary artery smooth muscle cells; format: cell-based; conditions: for number of cells after culturing for three days: Smooth muscle cells
Protocol: as §3

[11] = Adventitia, 5% drug 0.5 mL injected locally after balloon dilation
[12] = Intima, 5% drug 0.5 mL injected locally into vessel wall after balloon dilation, per unit area at highest-cell-density site
[13] = Media, 5% drug 0.5 mL injected locally after balloon dilation

Compound | Number of stem cells (250 × 250 μm^2) ([2]; Adventitia) | Number of stem cells (250 × 250 μm^2) ([2]; Intima) | Number of stem cells (250 × 250 μm^2) ([2]; Media) | effect of inhibiting proliferation of human vascular endothelial cells (HUBEC) [3] | number of cells after culturing for three days ([3]; Concentration (mol) 10^−4) | number of cells after culturing for three days ([3]; Concentration (mol) 10^−5) | number of cells after culturing for three days ([3]; Concentration (mol) 10^−6) | number of cells after culturing for three days ([3]; Concentration (mol) 10^−7) | number of cells after culturing for three days ([3]; Concentration (mol) 10^−8) | effect of inhibiting thrombus formation (antithrombotic effect) [4] | Average thrombus weight [4] | stenosis as determined through coronary angiography (coronary artery stenosis [5]) | Stenosis degree (%) (coronary artery stenosis [5]) | Number of dendritic cells (250 × 250 μm^2) ([6]; Adventitia) | invasion of dendritic cells [6] | Number of dendritic cells (250 × 250 μm^2) ([6]; Intima) | Number of dendritic cells (250 × 250 μm^2) ([6]; Media) | Number of stem cells [7, 11] | Number of stem cells [7, 12] | Number of stem cells [7, 13] | also measured
O=S1(=O)OC(c2ccc(O)cc2)(c2ccc(O)cc2)c2ccccc21 [Phenolsulfonphthalein, phenolsulfonphthalein] | 16.0 ± 7.1* 250 × 250 μm^2 | 7.1 ± 3.2** 250 × 250 μm^2 | 9.0 ± 4.0* 250 × 250 μm^2 | no effect | 3.37 | 3.40 | 3.35 | 3.43 | 3.47 | no effect; also recorded: nor antithrombotic effect | 195 mg | significantly inhibited | 10.1 ± 2.5 % | 1.0 ± 0.5* 250 × 250 μm^2 | inhibited | 0.2 ± 0.0* 250 × 250 μm^2 | 0.0 ± 0.0* 250 × 250 μm^2 | 19.3 ± 6.3* 250×250 um^2 | 11.0 ± 4.2* 250×250 um^2 | 10.1 ± 2.8* 250×250 um^2 | degree of stenosis [1]: significantly lower; Stenosis degree (%) ([1]; one month, coronary angiography): 10.4 ± 2.7 %; stenosis due to intimal hyperplasia (FIG. 2) (coronary artery stenosis [5]; four weeks after dilation, azan staining): only slight intimal hyperplasia; also recorded: only slightly observed; stem cell density compared with the non-administration group [7]: significantly lower; cell invasion (FIG. 2) ([7]; four weeks after dilation): less observed; cell invasion from the adventitia into the intima (FIG. 1) ([7]; one week after dilation with a balloon, azan staining): virtually no cell invasion is observed; also recorded: not observed; Stenosis degree (%) (coronary artery stenosis [8]): 0 ± 0.0 %; β-actin-positive cell density compared with the non-administration group [9]: significantly lower; Number of stem cells (250 × 250 μm^2) ([9]; Adventitia): 12.2 ± 3.4* 250 × 250 μm^2; Number of stem cells (250 × 250 μm^2) ([9]; Intima): 2.0 ± 0.8* 250 × 250 μm^2; Number of stem cells (250 × 250 μm^2) ([9]; Media): 2.6 ± 0.7* 250 × 250 μm^2; effect of inhibiting proliferation of vascular smooth muscle cells [10]: no effect; number of cells after culturing for three days ([10]; Concentration (mol) 10^−4): 3.65; number of cells after culturing for three days ([10]; Concentration (mol) 10^−5): 3.88; number of cells after culturing for three days ([10]; Concentration (mol) 10^−6): 4.17; number of cells after culturing for three days ([10]; Concentration (mol) 10^−7): 4.02; number of cells after culturing for three days ([10]; Concentration (mol) 10^−8): 4.08
O=C1OC(c2ccc(O)c(S(=O)(=O)O)c2)(c2ccc(O)c(S(=O)(=O)O)c2)c2c(Br)c(Br)c(Br)c(Br)c21 [Bromosulfophthalein, bromosulfophthalein] | 20.3 ± 9.9* 250 × 250 μm^2 | 8.8 ± 2.6** 250 × 250 μm^2 | 8.6 ± 5.0* 250 × 250 μm^2 | no effect | 3.44 | 3.43 | 3.52 | 3.59 | 3.34 | no effect; also recorded: nor antithrombotic effect | 210 mg | significantly inhibited | 33.5 ± 10.4 % | 3.6 ± 0.9* 250 × 250 μm^2 | inhibited | 1.6 ± 0.4* 250 × 250 μm^2 | 1.1 ± 0.1 250 × 250 μm^2 | 22.0 ± 6.2* 250×250 um^2 | 14.8 ± 6.1* 250×250 um^2 | 16.1 ± 4.8 250×250 um^2 | stem cell density compared with the non-administration group [7]: significantly lower; Stenosis degree (%) (coronary artery stenosis [8]): 11.2 ± 3.1 %; effect of inhibiting proliferation of vascular smooth muscle cells [10]: no effect; number of cells after culturing for three days ([10]; Concentration (mol) 10^−4): 3.43; number of cells after culturing for three days ([10]; Concentration (mol) 10^−5): 3.78; number of cells after culturing for three days ([10]; Concentration (mol) 10^−6): 4.19; number of cells after culturing for three days ([10]; Concentration (mol) 10^−7): 4.14; number of cells after culturing for three days ([10]; Concentration (mol) 10^−8): 4.24
